The numbers were not newly measured in article PMC3074590 (Science (New York, N.Y.), 2010), which cites them from elsewhere.

This data set deals with CXCR4. Conditions: characterized previously; no reference printed at this statement.

`CC1(C)CN2C(CSC(=NC3CCCCC3)NC3CCCCC3)=CSC2=N1` [IT1t]: the “mode of inhibition of CXCL12” value is recorded as “competitive inhibitors of CXCL12”.
